Experimental findings from article PMC4628998 (BioMed Research International, 2015) are described below.

For the assay, the target named is T1, CK2α (Zea mays) (Zea mays, UniProt P28523).
T1 construct: gene ACK2; catalytic subunit CK2α alone
The experiment in a line: radiometric peptide phosphorylation assay, residual activity at […]. The format is biochemical.

T1 sequence (P28523 whole entry): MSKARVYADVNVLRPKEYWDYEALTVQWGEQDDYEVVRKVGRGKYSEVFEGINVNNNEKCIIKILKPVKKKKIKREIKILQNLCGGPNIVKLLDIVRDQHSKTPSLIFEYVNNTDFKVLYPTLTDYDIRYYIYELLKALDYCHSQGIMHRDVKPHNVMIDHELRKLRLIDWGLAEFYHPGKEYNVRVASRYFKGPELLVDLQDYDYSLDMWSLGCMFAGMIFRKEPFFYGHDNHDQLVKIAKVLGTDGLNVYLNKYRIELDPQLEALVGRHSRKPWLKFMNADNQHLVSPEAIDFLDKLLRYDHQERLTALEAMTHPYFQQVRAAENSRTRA

As to `O=C1c2ccc(O)c(O)c2C(=O)c2c(O)ccc(O)c21` [quinalizarin, 1,2,5,8-tetrahydroxyanthraquinone], the activity at 1 µM worked out at 33%.
